Assay results reported in patent publication US11596611B2, “Hepatitis B antiviral agents” (ENANTA PHARMACEUTICALS, INC., priority 2017, dated 2023).

system: HBV; assay: HepAD38 antiviral assay: reduction of viral product accumulation (virion DNA by qPCR, HBsAg or HBeAg by ELISA); assay type: cell-based, hepatitis B virus; conditions: Hepatitis B virus, 120 h; HepAD38 cells, five days after compound addition; 50% reduction of viral product vs no drug controls; read-out: HepAD38 EC50
Method in brief: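 Tetracycline-free HepAD38 cells exposed to compound (DMSO stock diluted 1:200) for 5 days, or 8 days with media and compound refreshed on d2 and d5. Virion DNA quantified by qPCR after lysis; HBsAg or HBeAg measured by ELISA on diluted samples.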

Row | SMILES | EC50 [nM]
1 | C[C@@H](O)COCC1(O)CC(S(=O)(=O)c2cc(C(=O)Nc3ccc(F)c(F)c3)ccc2Cl)C1 (stereo partly drawn) [Example 234] | > 200
2 | CC(C)([C@H]1CC[C@@H](O)CC1)S(=O)(=O)c1cc(C(=O)Nc2ccc(F)c(F)c2)ccc1Cl [Example 235] | > 200
3 | CC(C)([C@H]1CC[C@H](O)CC1)S(=O)(=O)c1cc(C(=O)Nc2ccc(F)c(F)c2)ccc1Cl [Example 236] | > 200
4 | CC(C)([C@H]1CC[C@@](C)(O)CC1)S(=O)(=O)c1cc(C(=O)Nc2ccc(F)c(F)c2)ccc1Cl [Example 237] | > 200
5 | CC(C)([C@H]1CC[C@](C)(O)CC1)S(=O)(=O)c1cc(C(=O)Nc2ccc(F)c(F)c2)ccc1Cl [Example 238] | > 200
6 | C=CCC1(O)CC(S(=O)(=O)c2cc(C(=O)Nc3ccc(F)c(F)c3)ccc2Cl)C1 (stereo not drawn) [Example 239] | > 200
7 | O=C(Nc1ccc(F)c(F)c1)c1ccc(Cl)c(S(=O)(=O)C2CC(O)(CCO)C2)c1 (stereo not drawn) [Example 240] | > 200
8 | O=C(Nc1ccc(F)c(F)c1)c1ccc(Cl)c(S(=O)(=O)C2CC(O)(CCCO)C2)c1 (stereo not drawn) [Example 241] | > 200
9 | O=C(O)CC1(O)CC(S(=O)(=O)c2cc(C(=O)Nc3ccc(F)c(F)c3)ccc2Cl)C1 (stereo not drawn) [Example 243] | > 200
10 | COC(=O)CNC(=O)CC1(O)CC(S(=O)(=O)c2cc(C(=O)Nc3ccc(F)c(F)c3)ccc2Cl)C1 (stereo not drawn) [Example 244] | > 200
11 | O=C(CC1(O)CC(S(=O)(=O)c2cc(C(=O)Nc3ccc(F)c(F)c3)ccc2Cl)C1)NCCO (stereo not drawn) [Example 245] | > 200
12 | C[C@@H](CO)NC(=O)CC1(O)CC(S(=O)(=O)c2cc(C(=O)Nc3ccc(F)c(F)c3)ccc2Cl)C1 (stereo partly drawn) [Example 247] | > 200
13 | COC(=O)CCNC(=O)CC1(O)CC(S(=O)(=O)c2cc(C(=O)Nc3ccc(F)c(F)c3)ccc2Cl)C1 (stereo not drawn) [Example 248] | > 200
14 | O=C(CC1(O)CC(S(=O)(=O)c2cc(C(=O)Nc3ccc(F)c(F)c3)ccc2Cl)C1)NCCCO (stereo not drawn) [Example 249] | > 200
15 | COC(=O)[C@H]1C[C@H](S(=O)(=O)c2cc(C(=O)Nc3ccc(F)c(F)c3)ccc2Cl)C1 [Example 250a] | > 200
16 | COC(=O)[C@H]1C[C@@H](S(=O)(=O)c2cc(C(=O)Nc3ccc(F)c(F)c3)ccc2Cl)C1 [Example 250b] | > 200
17 | O=C(Nc1ccc(F)c(F)c1)c1ccc(Cl)c(S(=O)(=O)C2CC(C(=O)O)C2)c1 (stereo not drawn) [Example 251] | > 200
18 | O=C(Nc1ccc(F)c(F)c1)c1ccc(Cl)c(S(=O)(=O)[C@H]2C[C@H](CO)C2)c1 [Example 252a] | > 200
19 | O=C(Nc1ccc(F)c(F)c1)c1ccc(Cl)c(S(=O)(=O)[C@H]2C[C@@H](CO)C2)c1 [Example 252b] | > 200
20 | COC(=O)CNC(=O)[C@H]1C[C@H](S(=O)(=O)c2cc(C(=O)Nc3ccc(F)c(F)c3)ccc2Cl)C1 [Example 253a] | > 200
21 | COC(=O)CNC(=O)[C@H]1C[C@@H](S(=O)(=O)c2cc(C(=O)Nc3ccc(F)c(F)c3)ccc2Cl)C1 [Example 253b] | > 200

Row | SMILES | EC50 [nM]
22 | O=C(Nc1ccc(F)c(F)c1)c1ccc(Cl)c(S(=O)(=O)C2CC(C(=O)NCCO)C2)c1 (stereo not drawn) [Example 254] | > 200
23 | COC(=O)[C@H](C)NC(=O)C1CC(S(=O)(=O)c2cc(C(=O)Nc3ccc(F)c(F)c3)ccc2Cl)C1 (stereo partly drawn) [Example 255] | > 200
24 | C[C@@H](CO)NC(=O)[C@H]1C[C@H](S(=O)(=O)c2cc(C(=O)Nc3ccc(F)c(F)c3)ccc2Cl)C1 [Example 256a] | > 200
25 | C[C@@H](CO)NC(=O)[C@H]1C[C@@H](S(=O)(=O)c2cc(C(=O)Nc3ccc(F)c(F)c3)ccc2Cl)C1 [Example 256b] | > 200
26 | COC(=O)CCNC(=O)[C@H]1C[C@H](S(=O)(=O)c2cc(C(=O)Nc3ccc(F)c(F)c3)ccc2Cl)C1 [Example 257a] | > 200
27 | COC(=O)CCNC(=O)[C@H]1C[C@@H](S(=O)(=O)c2cc(C(=O)Nc3ccc(F)c(F)c3)ccc2Cl)C1 [Example 257b] | > 200
28 | O=C(Nc1ccc(F)c(F)c1)c1ccc(Cl)c(S(=O)(=O)C2CC(C(=O)NCCCO)C2)c1 (stereo not drawn) [Example 258] | > 200
29 | C=CC1(O)CC(S(=O)(=O)c2cc(C(=O)Nc3ccc(F)c(F)c3)ccc2Cl)C1 (stereo not drawn) [Example 260] | > 200
30 | CC(C)C(O)[C@]1(O)C2CCC1C[C@@H](S(=O)(=O)c1cc(C(=O)Nc3ccc(F)c(F)c3)ccc1Cl)C2 (stereo partly drawn) [Example 281] | > 200
31 | O=C(Nc1ccc(F)c(F)c1)c1ccc(Cl)c(S(=O)(=O)[C@H]2CC3CCC(C2)[C@]3(O)C(O)c2ccccc2)c1 (stereo partly drawn) [Example 283] | 100 to 200
32 | O=C(Nc1ccc(F)c(F)c1)c1ccc(Cl)c(S(=O)(=O)[C@H]2CC3CCC(C2)[C@]3(O)C(O)c2ccccn2)c1 (stereo partly drawn) [Example 284] | < 104
33 | O=C(Nc1ccc(F)c(F)c1)c1ccc(Cl)c(S(=O)(=O)[C@H]2CC3CCC(C2)[C@]3(O)C(O)c2cccnc2)c1 (stereo partly drawn) [Example 285] | < 104
34 | O=C(Nc1ccc(F)c(F)c1)c1ccc(Cl)c(S(=O)(=O)[C@H]2CC3CCC(C2)[C@]3(O)C(O)c2ccncc2)c1 (stereo partly drawn) [Example 286] | 100 to 200
35 | Nc1cc(NC(=O)c2ccc(Cl)c(S(=O)(=O)[C@H]3CC4CCC(C3)[C@]4(O)C(O)c3ncc[nH]3)c2)ccc1F (stereo partly drawn) [Example 287] | > 200
36 | Cn1nccc1C(O)[C@]1(O)C2CCC1C[C@@H](S(=O)(=O)c1cc(C(=O)Nc3ccc(F)c(F)c3)ccc1Cl)C2 (stereo partly drawn) [Example 288] | < 104
37 | O=C(Nc1ccc(F)c(F)c1)c1ccc(Cl)c(S(=O)(=O)[C@H]2CC3CCC(C2)[C@]3(O)C(O)c2ccc(F)c[n+]2[O-])c1 (stereo partly drawn) [Example 292] | > 200
38 | Cc1ccc(C(O)[C@]2(O)C3CCC2C[C@@H](S(=O)(=O)c2cc(C(=O)Nc4ccc(F)c(F)c4)ccc2Cl)C3)nc1 (stereo partly drawn) [Example 293] | < 104
39 | Cc1cccc([C@H](O)[C@@]2(O)C3CC[C@H]2C[C@H](S(=O)(=O)c2cc(C(=O)Nc4ccc(F)c(F)c4)ccc2Cl)C3)n1 [Example 294a] | < 104
40 | Cc1cccc([C@@H](O)[C@@]2(O)C3CC[C@H]2C[C@H](S(=O)(=O)c2cc(C(=O)Nc4ccc(F)c(F)c4)ccc2Cl)C3)n1 [Example 294b] | < 104
41 | Cc1cccnc1C(O)[C@@]1(O)C2CC[C@H]1C[C@H](S(=O)(=O)c1cc(C(=O)Nc3ccc(F)c(F)c3)ccc1Cl)C2 (stereo partly drawn) [Example 295] | < 104
42 | Cc1ccnc([C@H](O)[C@@]2(O)C3CC[C@H]2C[C@H](S(=O)(=O)c2cc(C(=O)Nc4ccc(F)c(F)c4)ccc2Cl)C3)c1 [Example 296a] | < 104

Row | SMILES | EC50 [nM]
43 | Cc1ccnc([C@@H](O)[C@@]2(O)C3CC[C@H]2C[C@H](S(=O)(=O)c2cc(C(=O)Nc4ccc(F)c(F)c4)ccc2Cl)C3)c1 [Example 296b] | < 104
44 | O=C(Nc1ccc(F)c(F)c1)c1ccc(Cl)c(S(=O)(=O)[C@H]2CC3CCC(C2)[C@]3(O)C(O)c2ncccc2F)c1 (stereo partly drawn) [Example 297] | < 104
45 | O=C(Nc1ccc(F)c(F)c1)c1ccc(Cl)c(S(=O)(=O)[C@@H]2CC3CC[C@@H](C2)[C@@]3(O)C(O)c2ccnc(Br)c2F)c1 (stereo partly drawn) [Example 298] | < 104
46 | O=C(Nc1ccc(F)c(F)c1)c1ccc(Cl)c(S(=O)(=O)[C@@H]2CC3CC[C@@H](C2)[C@@]3(O)[C@H](O)c2cc(F)ccn2)c1 [Example 299] | < 104
47 | O=C(Nc1ccc(F)c(F)c1)c1ccc(Cl)c(S(=O)(=O)[C@@H]2CC3CC[C@@H](C2)[C@@]3(O)C(O)c2ccc(C(F)(F)F)cn2)c1 (stereo partly drawn) [Example 300] | > 200
48 | O=C(Nc1ccc(F)c(F)c1)c1ccc(Cl)c(S(=O)(=O)[C@@H]2CC3CC[C@@H](C2)[C@@]3(O)C(O)c2ccc3ccccc3n2)c1 (stereo partly drawn) [Example 301] | < 104
49 | CC(C)N(C)C[C@]1(O)C2CCC1C[C@@H](S(=O)(=O)c1cc(C(=O)Nc3ccc(F)c(F)c3)ccc1Cl)C2 [Example 304] | < 104
50 | O=C(Nc1ccc(F)c(F)c1)c1ccc(Cl)c(S(=O)(=O)[C@@H]2CC3CC[C@@H](C2)[C@@]3(O)Cn2ccc(=O)[nH]c2=O)c1 [Example 305] | < 104
51 | O=C(Nc1ccc(F)c(F)c1)c1ccc(Cl)c(S(=O)(=O)[C@H]2CC3CCC(C2)[C@]3(O)CN2CCOC2=O)c1 [Example 306] | < 104
52 | CC(C)N(C)[C@H]1C2CCC1C[C@H](S(=O)(=O)c1cc(C(=O)Nc3ccc(F)c(F)c3)ccc1Cl)C2 [Example 307] | 100 to 200
53 | O=C(Nc1ccc(F)c(F)c1)c1ccc(Cl)c(S(=O)(=O)[C@H]2CC3CCC(C2)[C@@]3(O)C(O)CN2CCCS2(=O)=O)c1 (stereo partly drawn) [Example 309] | 100 to 200
54 | O=C(Nc1ccc(F)c(F)c1)c1ccc(Cl)c(S(=O)(=O)[C@H]2CC3CC[C@@H](C2)[C@@]3(O)C(O)Cn2cccn2)c1 (stereo partly drawn) [Example 310] | > 200
55 | O=C(Nc1ccc(F)c(F)c1)c1ccc(Cl)c(S(=O)(=O)[C@H]2CC3CC[C@@H](C2)[C@@]3(O)C(O)Cn2ccnc2)c1 (stereo partly drawn) [Example 311] | > 200
56 | O=C(Nc1ccc(F)c(F)c1)c1ccc(Cl)c(S(=O)(=O)[C@H]2CC3CC[C@@H](C2)[C@@]3(O)C(O)CN2CCOC2=O)c1 (stereo partly drawn) [Example 312] | > 200
57 | O=C(Nc1ccc(F)c(F)c1)c1ccc(Cl)c(S(=O)(=O)[C@H]2CC3CCC(C2)[C@]3(O)C(O)C(O)CN2CCOC2=O)c1 (stereo partly drawn) [Example 313] | < 104
58 | O=C(Nc1ccc(F)c(F)c1)c1ccc(Cl)c(S(=O)(=O)[C@H]2CC3CCC(C2)[C@]3(O)C(O)Cn2cccn2)c1 (stereo partly drawn) [Example 314] | < 104
59 | O=C(Nc1ccc(F)c(F)c1)c1ccc(Cl)c(S(=O)(=O)[C@H]2CC3CCC(C2)[C@]3(O)C(O)CN2CCOC2=O)c1 (stereo partly drawn) [Example 315] | > 200
60 | O=C(Nc1ccc(F)c(F)c1)c1ccc(Cl)c(S(=O)(=O)[C@H]2CC3CCC(C2)[C@]3(O)C(O)Cc2ncc[nH]2)c1 (stereo partly drawn) [Example 316] | > 200
61 | O=C(Nc1ccc(F)c(F)c1)c1ccc(Cl)c(S(=O)(=O)[C@H]2CC3CCC(C2)[C@]3(O)C(O)Cc2cccnc2)c1 (stereo partly drawn) [Example 318] | > 200
62 | O=C(Nc1ccc(F)c(F)c1)c1ccc(Cl)c(S(=O)(=O)[C@H]2CC3CCC(C2)[C@]3(O)C(O)C(O)CN2CCCS2(=O)=O)c1 (stereo partly drawn) [Example 320] | < 104
63 | O=C(Nc1ccc(F)c(F)c1)c1ccc(Cl)c(S(=O)(=O)[C@H]2CC3CCC(C2)[C@]3(O)C(O)C(O)c2cccnc2)c1 (stereo partly drawn) [Example 321] | < 104
